According to PubChem BioAssay (NCI):
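1) Cells in 96-well plates. 2) Compound, 48 h, 5 concentrations. 3) Linear interpolation between surrounding doses. 4) Unreached endpoint = highest concentration. TGI: concentration producing complete growth inhibition.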

Legend:
Experiment in all cases: NCI-60 cell line screen, 48 h
EKVX NSCLC = test system: EKVX NSCLC
OVCAR-8 ovarian = test system: OVCAR-8 ovarian
RXF 393 renal = test system: RXF 393 renal
MALME-3M melanoma = test system: MALME-3M melanoma
UO-31 renal = test system: UO-31 renal
HT29 colon = test system: HT29 colon
COLO 205 colon = test system: COLO 205 colon
T-47D breast = test system: T-47D breast
HS 578T breast = test system: HS 578T breast
ACHN renal = test system: ACHN renal
SN12C renal = test system: SN12C renal
HCT-15 colon = test system: HCT-15 colon
HL-60(TB) leukemia = test system: HL-60(TB) leukemia
CAKI-1 renal = test system: CAKI-1 renal
SF-268 CNS = test system: SF-268 CNS
M14 melanoma = test system: M14 melanoma
BT-549 breast = test system: BT-549 breast
SR leukemia = test system: SR leukemia
NCI-H460 lung = test system: NCI-H460 lung
HCC-2998 colon = test system: HCC-2998 colon

Row | Structure (SMILES) | TGI (EKVX NSCLC) [µM] | TGI (OVCAR-8 ovarian) [µM] | TGI (RXF 393 renal) [µM] | TGI (MALME-3M melanoma) [µM] | TGI (UO-31 renal) [µM] | TGI (HT29 colon) [µM] | TGI (COLO 205 colon) [µM] | TGI (T-47D breast) [µM] | TGI (HS 578T breast) [µM] | TGI (ACHN renal) [µM] | TGI (SN12C renal) [µM] | TGI (HCT-15 colon) [µM] | TGI (HL-60(TB) leukemia) [µM] | TGI (CAKI-1 renal) [µM] | TGI (SF-268 CNS) [µM] | TGI (M14 melanoma) [µM] | TGI (BT-549 breast) [µM] | TGI (SR leukemia) [µM] | TGI (NCI-H460 lung) [µM] | TGI (HCC-2998 colon) [µM]
1 | CC(C)(Oc1ccc(Cl)cc1)C(=O)N(C(=O)N1CCCCC1)c1ccccc1 | 21.9 | 31.4 | 33.3 | 85.2 | 42 | 66.1 | > 100 | 9.68 | 58.5 | 28.1 | 47 | 24.6 | 21 | 29.9 | 56.7 | 52.1 | 30.4 | – | – | –
2 | COc1ccc2nc3c([N+](=O)[O-])ccc4c3c(c2c1)NCCN4CCN(C)C | 2.78 | > 10 | 2.38 | 1.56 | 3.42 | 2.34 | – | – | 3.91 | 1.66 | 3.28 | 1.94 | – | 7.35 | 2.41 | 1.71 | 3.39 | 7.24 | 1.46 | –
3 | CN(C)C=Nc1c2ccccc2nc2ccccc12 | 29.1 | 18.3 | 16.4 | 12.7 | 29.5 | 14.5 | 8.87 | 9.67 | 6.82 | 34 | 11.9 | 32.8 | 18.2 | > 100 | 13.1 | 16.2 | 13.2 | – | – | –
4 | COc1cc(C2OC(N)=C(C#N)C3=C2C(C)CCC3)cc(OC)c1OC (stereo not drawn) | > 100 | > 100 | > 100 | > 100 | > 100 | > 100 | > 100 | > 100 | > 100 | > 100 | > 100 | > 100 | > 100 | > 100 | > 100 | > 100 | > 100 | > 100 | – | –
5 | COc1ccccc1C(=O)NO | > 100 | > 100 | > 100 | – | > 100 | > 100 | > 100 | > 100 | > 100 | > 100 | > 100 | > 100 | > 100 | > 100 | > 100 | > 100 | > 100 | > 100 | > 100 | > 100
6 | O=c1[nH]c(N/N=C\C(=N/Nc2nc3ccccc3c(=O)[nH]2)C(O)C(O)C(O)CO)nc2ccccc12 (stereo not drawn) | > 100 | > 100 | – | – | > 100 | > 100 | > 100 | > 100 | > 100 | > 100 | > 100 | > 100 | > 100 | > 100 | > 100 | > 100 | > 100 | > 100 | > 100 | –
7 | COC(=O)c1cc(=O)n(-c2ccc3nn(C)nc3c2)cc1C(=O)OC | > 100 | > 100 | > 100 | > 100 | > 100 | > 100 | > 100 | > 100 | > 100 | > 100 | > 100 | > 100 | – | > 100 | > 100 | > 100 | > 100 | > 100 | > 100 | > 100
